Data on 13 compounds can be found in patent US7083933B1, “Methods for identification of modulators of OSGPR116 activity” (Prosidion Limited, priority 2003, dated 2006).

The target of experiment [1] is T1, OSGPR116 (Homo sapiens, UniProt Q8TDV5).
T1 sequence (Q8TDV5 1-335): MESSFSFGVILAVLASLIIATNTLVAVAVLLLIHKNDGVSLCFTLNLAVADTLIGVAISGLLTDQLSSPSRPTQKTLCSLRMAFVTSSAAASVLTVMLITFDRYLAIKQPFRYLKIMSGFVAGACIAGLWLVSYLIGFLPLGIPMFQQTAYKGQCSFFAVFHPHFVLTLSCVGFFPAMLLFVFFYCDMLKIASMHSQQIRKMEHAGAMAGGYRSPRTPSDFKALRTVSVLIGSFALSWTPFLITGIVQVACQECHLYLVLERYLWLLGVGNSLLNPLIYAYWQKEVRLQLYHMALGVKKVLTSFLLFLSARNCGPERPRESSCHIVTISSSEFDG
The experiment in a line: Yeast cell-based Fus1p-LacZ reporter assay, human OSGPR116. Also on record: expressed in transfected cells; host or cells: engineered yeast (GPA1 and Ste3 deleted, G-alpha chimera, Fus1p-LacZ reporters). The following applies: human isoform, FIG. 9a; Galpha-q5 yeast, 4h incubation. The source says: (§1) The yeast cell-based reporter assays have previously been described in the literature (e.g. see Miret J. J., et. al. (2002) J. Biol. Chem. 277:6881–6887; Campbell R. M., et. al. (1999) Bioorg Med. Chem. Lett. 9:2413–2418; King K., et. al. (1990) Science. 250:121–123); WO 99/14344; WO 00/12704; and U.S. Pat. No. 6,100,042). Briefly, yeast cells have been engineered such that the endogenous yeast G-alpha (GPA1) has been deleted and replaced with G-protein chimeras constructed using multiple techniques. Additionally the endogenous yeast alpha-cell GPCR, Ste3 has been deleted to allow for a […] expression of a mammalian GPCR of choice. In the yeast, elements of the pheromone signaling transduction pathway, which are conserved in eukaryotic cells (for example, the mitogen-activated protein kinase pathway), drive the expression of Fus1. By placing β-galactosidase (LacZ) under the control of the Fus1 promoter (Fus1p), a system has been developed whereby receptor activation leads to an enzymatic read-out. Different yeast strains (e.g. FIG. 10) denote the presence of different G-alpha chimeras (see “yeast reporter assays” in Results section below for definitions).
(§2) Yeast cells are transformed by an adaptation of the Lithium acetate method described by Agatep et.al. (Agatep, R., et. al. (1998) Transformation of Saccharomyces cerevisiae by the lithium acetate/single-stranded carrier DNA/polyethylene glycol (LiAc/ss-DNA/PEG) protocol. Technical Tips Online, Trends Journals, Elsevier). Briefly, yeast cells are grown overnight on yeast tryptone plates (YT). Carrier single-stranded DNA (10 μg), 2 μg of each of two Fus1p-LacZ reporter plasmids (one with URA selection marker and one with TRP), 2 μg of OSGPR116 in yeast expression vector (2μ origin of replication) and a lithium acetate/polyethylene glycol/TE buffer is pipetted into an Epindorf tube. The yeast expression plasmid containing the receptor/no receptor control has a LEU marker. Yeast cells are inoculated into this mixture and the reaction proceeds at 30° C. for 60 minutes. The yeast cells are then heat-shocked at 42° C. for 15 minutes. The cells are then washed and spread on selection plates. The selection plates are synthetic defined yeast media minus LEU, URA and TRP (SD-LUT). After incubating at 30° C. for 2–3 days, colonies that grow on the selection plates are then tested in the LacZ assay.
(§3) In order to perform fluorometric enzyme assays for β-galactosidase, yeast cells were grown overnight in liquid SD-LUT media to an unsaturated concentration (i.e. the cells are still dividing and have not yet reached stationary phase). They are diluted in fresh media to an optimal assay concentration and 90 μL of yeast cells were added to 96-well black polystyrene plates (Costar). Compounds, dissolved in ethanol and diluted in a 1% BSA solution to 10× concentration, were added to the plates and the yeast are placed at 30° C. for 4h. After 4h, the substrate for the β-galactosidase is added to each well. The substrate may yield a fluorescent or calorimetric read-out upon the activity of the β-galactosidase. In these experiments, Fluorescein di (β-D-galactopyranoside) was used (FDG), a substrate for the enzyme that releases fluorescein, allowing a fluorometric read-out. 20 μL of 500 uM FDG was used. After incubation of the cells with the substrate for 30–60 mins, 20 μL of 1M sodium carbonate is added to terminate the reaction and enhance the fluorescent signal. The plates were then read in a fluorometer at 485/535 nm. As an alternate read-out system, the yeast are also engineered with a Fus1p-HIS gene which means that activation of the receptor can also be measured through the growth of the yeast in a […] deficient media.
(In a reporter assay the amount or activity of a reporter protein is the signal.)

Experiment [2] deals with T1, OSGPR116. Description: Cre-SEAP assay in HEK-293-Galpha16 cells transfected with OSGPR116 or empty vector. It counts as cell-based. Also on record: expressed in transfected cells; host or cells: HEK-293-Galpha16 cells stably expressing cre-SEAP, transient transfection with lipofectamine. The following applies: OSGPR116 and empty vector transfected cells, 7h, FIG. 12. Here is the method:
HEK-293—Galpha16 cells stably expressing the cre-SEAP (secreted alkaline phosphatase) reporter construct, and transiently transfected with either the OSGPR116 vector or empty vector control, were grown to between ˜0.5×10^6 and 1×10^7 cells/dish and seeded at 4×10^4 cells/well on poly-D-lysine coated clear-bottom 96-well tissue culture plates. The cells were left to adhere to the plates in media for 24h at 37° C. The media was aspirated and the cells arrested by serum starvation for a further 24h in 200 ul of colorless DMEM.
After serum arrest, the starvation media was aspirated and 90 ul fresh colorless DMEM containing 0.1% BSA was added. 10 ul of 10× compound (or DMSO/H20 control) was added and the plates incubated at 37° C. for 7h. Conditioned media (12.5 ul) was then transferred to a 96 well white flat-bottom plate. Next, 37.5 μl of 1× Tropix Dilution Buffer was added to the transferred culture media. 50 μl of Tropix Assay Buffer was also added. The plate was then incubated at room temperature for 5 minutes. Finally, 50 μl Tropix Reaction Buffer Diluent containing a 1:20 dilution of the CSPD Chemiluminescent Substrate was added. The plate was incubated at room temperature for 60 minutes and luminescence measured.

Experiment [3] deals with T2, mouse homolog of OSGPR116 (Mus musculus, UniProt Q7TQP3).
T2 construct: expressed in transfected cells; host or cells: engineered yeast (GPA1 and Ste3 deleted, G-alpha chimera, Fus1p-LacZ reporters)
T2 sequence (Q7TQP3 1-335): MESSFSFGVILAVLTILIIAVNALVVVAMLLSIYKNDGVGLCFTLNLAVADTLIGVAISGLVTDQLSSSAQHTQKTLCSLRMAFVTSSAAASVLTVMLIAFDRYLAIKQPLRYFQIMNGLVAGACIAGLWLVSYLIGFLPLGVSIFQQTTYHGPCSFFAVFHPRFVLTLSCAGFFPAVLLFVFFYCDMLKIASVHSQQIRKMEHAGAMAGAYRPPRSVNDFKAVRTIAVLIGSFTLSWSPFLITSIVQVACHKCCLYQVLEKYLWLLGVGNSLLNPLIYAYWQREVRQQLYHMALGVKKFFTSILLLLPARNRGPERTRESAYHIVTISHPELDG
Description: Yeast cell-based Fus1p-LacZ reporter assay, mouse OSGPR116. The following applies: mouse isoform, FIG. 9b; Galpha-q5 yeast, 4h incubation.
Excerpt: as §1, §2, §3

Experiment [4] has as its system vector transformed yeast cells. The experiment in a line: Yeast reporter assay, vector transformed (no receptor) control yeast. The following applies: yeast without OSGPR116 expression, FIGS. 9a, 9b. Type of experiment: cell-based.
Excerpt: as §1, §2, §3

Experiment [5] addresses T1, OSGPR116. Set-up: expressed in transfected cells; host or cells: yeast strains 13397, 13393, 15070, 18043, 20202, 10151 with different G-alpha chimeras. The following applies: as described in earlier U.S. patents; cited from earlier work.

Regarding `CCCC(C)(C)c1ccc2c(c1)OC(C)(C)[C@@H]1CC=C(C)C[C@@H]21` [JWH-133], on OSGPR116 [1], the “effect on fluorescence (β-galactosidase activity) in yeast transformed with OSGPR116 receptor” value (shortened to “effect on fluorescence”) was “no effect”.

Turning to `CCCCC/C=C\C/C=C\C/C=C\C/C=C\CCCC(=O)N[C@H](C)CO` [methanandamide], the “effect on fluorescence” value on OSGPR116 [1] is “no effect”.

For the compound `CC/C=C\C/C=C\C/C=C\C/C=C\C/C=C\C/C=C\CCC(=O)NCCO` [docosahexaenoic acid ethanolamide], the “effect on fluorescence” value on OSGPR116 [1] is “no effect”.

Consider `CCCCCCC(C)(C)c1ccc([C@@H]2C[C@H](O)CC[C@H]2CCCO)c(O)c1` [CP55940], for which, on OSGPR116 [1], the “effect on fluorescence” value is “no effect”.

As to `Cc1c(C(=O)c2cccc3ccccc23)c2cccc3c2n1[C@H](CN1CCOCC1)CO3` [WIN55212-2], at OSGPR116 [1], the “effect on fluorescence” value was “no effect”.

For the compound `CCNC(=O)[C@H]1O[C@@H](n2cnc3c(N)ncnc32)[C@H](O)[C@@H]1O` [NECA], the “luminescence (cre-SEAP, cAMP response element driven secreted alkaline phosphatase)” value (from here on “luminescence”) at OSGPR116 [2] is “clear increase”.

On to `CC/C=C\C/C=C\C/C=C\CCCCCCCC(=O)NCCO` [linolenoyl ethanolamide], for which the “effect on fluorescence” value (in experiment [3]; on OSGPR116 [1]) was “increase in fluorescence” in each case. In experiment [4], the “increase in fluorescence in vector transformed cells” value (shortened to “increase”) is given as “not”.

With `CC1=C(/C=C/C(C)=C/C=C/C(C)=C/C(=O)O)C(C)(C)CCC1` [ATRA, all-trans-retinoic acid], the “effect on fluorescence” value at OSGPR116 [1] is “no effect”. The “luminescence” value on OSGPR116 [2] is listed as “no effect”; at OSGPR116 [2] (listed as all-trans retinoic acid (ATRA)) it was “Lack of effect”. Further, the “production of cyclic AMP in host cells expressing recombinant receptor” value on OSGPR116 [5] is “stimulate the production of cyclic AMP”.

Consider `CCCCCCCCCCCCCCCCCC(=O)NCCO` [stearoyl ethanolamide], for which the “effect on fluorescence” value (in experiment [3]; at OSGPR116 [1]) was “increase in fluorescence” in each case. In experiment [4], the “increase” value was “not”.

Consider `CCCCCCCCCCCCCCCC(=O)NCCO` [palmitoyl ethanolamide], for which the “effect on fluorescence” value (in experiment [3]; at OSGPR116 [1]) was “increase in fluorescence” in each case. Moreover, in experiment [4], the “increase” value is “not”.

For `CCCCCCCC/C=C\CCCCCCCC(N)=O` [oleamide], the “effect on fluorescence” value (in experiment [3]; at OSGPR116 [1]) was “increase in fluorescence” throughout. Besides, the “increase” value in experiment [4] is “not”.

Take `CCCCC/C=C\C/C=C\C/C=C\C/C=C\CCCC(=O)NCCO` [anandamide]: the “effect on fluorescence” value (in experiment [3]; on OSGPR116 [1]) was “increase in fluorescence” each time. Besides, in experiment [4], the “increase” value is “not”.

Take `Nc1ncnc2c1ncn2[C@@H]1O[C@H](COP(=O)(O)OP(=O)(O)OP(=O)(O)O)[C@@H](O)[C@H]1O` [ATP]: the “luminescence” value at OSGPR116 [2] was “no effect”.
